# In patent publication US20240390334A1, “COMPOSITIONS AND METHODS FOR MITIGATING ALCOHOL LIVER DISEASE” (Research Foundation of the City University of New York, priority 2021, published 2024):
# Experiments:
# [1] = system: genes involved in de novo lipogenesis and fatty acid β-oxidation; assay: RNA-seq of hepatic transcripts of lipid metabolism genes in liquid ethanol diet model; assay type: in vivo, mouse (male C57BL/6J)
# From the text: (§1) Liquid Ethanol Diet. Male C57BL/6J mice (8-9-weeks-old) (n=30) were purchased from Jackson Laboratory. Animals were housed in standard cages with 2-mice per cage and fed a standard vivarium chow (rodent diet #2014, Harlan-Teklad, Madison, WI). After acclimation to liquid feeding, mice were switched to the Lieber-DeCarli-liquid alcohol diet for 3 weeks using the following groups: 1) Control diet-fed mice (aka Pair-fed (PF), n=6), 2) Pair-fed mice+RARβ2 specific agonist AC261066 (Tocris #4046), at 10 mg/kg/day [Pair-fed+AC261, (n=4)] (PF-AC), 3) Alcohol-treated (5% ethanol (EtOH) v/v plus vehicle [0.1% DMSO], n=10) (EtOH), and iv) 4) EtOH+AC261, [10 mg/kg/day], n=10)] (EtOH-AC).
# The mechanism by which AC261066 functions in lipid metabolism, including de novo lipogenesis and fatty acid β-oxidation in the liver, was assessed.
# ethanol-fed mice [2] = assay: Hepatic steatosis (histopathology, Oil Red O, hepatic triglycerides) in Lieber-DeCarli liquid ethanol diet model of early ALD; assay type: in vivo, mouse (male C57BL/6J); settings: EtOH-AC261 vs EtOH mice, 10 mg/kg/day, 3 weeks
# From the text: as §1
# CYP2E1 = assay: Hepatic CYP2E1 protein by western blot and IHC in liquid ethanol diet model; assay type: in vivo, mouse (male C57BL/6J); settings: EtOH-AC261066 vs EtOH mice
# From the text: as §1
# (§2) AC261066 and ethanol modulate centrilobular protein expression of ALDH1A1, CYP2E1, and Oxidative Stress. ALDH1A1 is one of the rate-limiting enzymes in the oxidation of retinaldehyde to RA and a key contributor to hepatic RA synthesis, as mice lacking ALDH1A1 show reduced hepatic levels of RA. […] Therefore, hepatic protein levels of ALDH1A1 were measured next, as it was the only ALDH1A isoform to increase in EtOH compared to PF mice. […] Therefore, given that high levels of ALDH1A1 were specifically detected only in zone 2-3, centrilobular regions, hepatic CYP2E1 protein levels were next measured by western blot and IHC, and by IHC, 4-HNE, as an indirect readout of oxidative stress. […]
# ethanol-fed mice [3] = assay: Plasma AST and ALT activity (liver injury markers) in liquid ethanol diet model; assay type: in vivo, mouse (male C57BL/6J); settings: EtOH-AC261 vs EtOH mice; 10 mg/kg/day, 3 weeks
# From the text: as §1
# [4] = Tolerability and general observations (food intake, body weight, blood alcohol, hepatic drug level, hepatotoxicity, fibrosis) in liquid ethanol diet study; assay type: in vivo, mouse (male C57BL/6J)
# From the text: as §1
# ALDH1A1 = assay: Hepatic ALDH1A1 protein by western blot and IHC in liquid ethanol diet model; assay type: in vivo, mouse (male C57BL/6J); settings: EtOH-AC vs EtOH mice
# From the text: as §1, §2
# 4-HNE = assay: Hepatic 4-HNE IHC (indirect readout of oxidative stress) in liquid ethanol diet model; assay type: in vivo, mouse (male C57BL/6J); settings: EtOH-AC261 vs EtOH mice
# From the text: as §1, §2
# human RARβ2 receptors = target: T1, human RARβ2 receptors (Homo sapiens, UniProt P10826); settings: as described in Lund et al. (2005, J. Med. Chem., 48, 7517-7519); cited from earlier work
# T1 sequence (P10826 1-448 isoform P10826-2): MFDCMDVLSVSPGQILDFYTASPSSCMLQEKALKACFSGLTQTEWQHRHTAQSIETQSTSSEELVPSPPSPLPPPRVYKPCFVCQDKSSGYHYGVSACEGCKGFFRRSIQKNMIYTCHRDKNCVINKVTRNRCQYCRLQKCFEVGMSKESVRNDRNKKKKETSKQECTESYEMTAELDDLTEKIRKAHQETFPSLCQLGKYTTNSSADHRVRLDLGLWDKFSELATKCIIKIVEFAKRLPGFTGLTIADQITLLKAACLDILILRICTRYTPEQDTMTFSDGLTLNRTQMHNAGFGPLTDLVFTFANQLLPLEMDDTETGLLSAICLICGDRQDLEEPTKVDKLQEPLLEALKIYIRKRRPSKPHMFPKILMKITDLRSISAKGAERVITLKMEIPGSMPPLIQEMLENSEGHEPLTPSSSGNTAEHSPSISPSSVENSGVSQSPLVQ
# [5] = 5% ETOH-fed mice with vs without AC261066
# [6] = 5% ETOH-fed plus AC261066 vs ETOH-fed mice without AC261066
compound,measurement,setting,value
CCCCOCCOc1nc(-c2ccc(C(=O)O)c(F)c2)sc1C [AC261066],EtOH-induced increase in hepatic Fasn mRNA level,[1]; [5],eliminated or attenuated
same,EtOH-induced increase in hepatic Mogat1 mRNA level,[1]; [5],eliminated or attenuated
same,EtOH-induced increase in hepatic Pparg mRNA level,[1]; [5],eliminated or attenuated
same,hepatic CPT1-α transcripts,[1]; [6],increased
same,hepatic Ppara transcripts,[1]; [6],increased
same,reduction in Oil red O lipid-staining,ethanol-fed mice [2],41%
same,reduction in hepatic triglycerides,ethanol-fed mice [2],35%
same,reduction in macrovesicular steatosis,ethanol-fed mice [2]; 5% EtOH diet,72%
same,reduction in microvesicular steatosis,ethanol-fed mice [2]; 5% EtOH diet,82%
same,reduction in zone 2-3 centrilobular CYP2E1 protein levels,CYP2E1; IHC,~39%
same,reduction in hepatic CYP2E1 protein levels,CYP2E1; total protein,approximately 31%
same,reduction in plasma activity of ALT,ethanol-fed mice [3],~30%
same,reduction in plasma activity of AST,ethanol-fed mice [3],~30%
same,"changes to hepatic steatosis, triglyceride levels, fibrosis, or liver injury","[4]; PF+AC261 mice (pair-fed, no ethanol), 10 mg/kg/day, 3 weeks",No evidence was found of changes
same,daily food intake and body weights,"[4]; all groups, entire length of the study",no group differences
same,hepatoxicity or fibrosis,"[4]; concomitant administration of AC261 with EtOH, 3 weeks",no evidence
same,effect of EtOH on hepatic AC261 levels,"[4]; concomitant administration with EtOH, 3 weeks",did not adversely impact
same,"reduction in zone 2-3, centrilobular ALDH1A1 protein immunoreactivity",ALDH1A1; IHC,40%
same,reduction in ALDH1A1 total protein,ALDH1A1; western blot,32%
same,decrease in hepatic levels of 4-HNE,4-HNE,36%
same,decrease in hepatic levels of 4-HNE (first value),4-HNE,33%
same,isoform selectivity of agonism at human RARβ2 receptors,human RARβ2 receptors,highly isoform-selective agonists
CCCCCCCCc1ccc(-c2ccc(C(=O)O)cc2)cc1 [AC55649],isoform selectivity of agonism at human RARβ2 receptors,human RARβ2 receptors,highly isoform-selective agonists
